# Legend:
# [1] = biological target: T1, BVDV (NADL) RNA-dependent RNA polymerase (RdRp) (Bovine viral diarrhea virus, UniProt P19711); assay: RNA-dependent RNA polymerase assay, poly(C) template; type: biochemical; conditions: purified RdRp, read-out: 50% inhibitory concentration for the BVDV polymerase activity
# T1 construct: BVDV (NADL) RNA-dependent RNA polymerase (RdRp) was expressed and purified; made in house
# Protocol: BVDV (NADL) RNA-dependent RNA polymerase (RdRp) was expressed and purified, as described before. […] In brief, the purified BVDV polymerase (100 nM) was mixed with 100 µM GTP (containing 8.3 µM of [^3H]GTP, Perkin Elmer) and increasing concentration of the inhibitor (0.2 µM, 0.7 µM, 2 µM, 6 µM, 19 µM, 56 µM, 165 µM or 500 µM) in 50 mM Hepes pH 8.0, 10 mM KCl, 10 mM DTT, 1 mM MgCl2, 2mM MnCl2, and 0.5% igepal (Sigma). The enzyme mix and inhibitors were pre-incubated, in order to favor enzyme-inhibitor interactions before RNA binding. Reactions were started by the addition of 100 nM of poly(C) (about 500 nt in size) template. Reactions were incubated at 30 °C and stopped by addition of 50 mM EDTA. Samples were transferred onto DE-81 filters, washed with 0.3 M ammonium formate solution, and dried. Radioactivity bound to the filter was determined by liquid scintillation counting.
# BVDV NADL virus = assay: CPE-based antiviral assay, BVDV NADL in MDBK cells (MTS/PMS); conditions: for EC50: Bovine viral diarrhea virus isolates and strains, MDBK, 72 h; for S.I.: selectivity index, CC50 vs EC50
# [2] = Cytotoxicity assay, proliferation of exponentially growing MDBK cells (MTS/PMS); type: cell-based, bovine; conditions: bovine
# Protocol: Assays were carried out, as described previously.
# [3] = sheet CSFCII#, potency relative to TO502-2403 (EC50 0.2 µM)
# [4] = sheet CSFCI#, potency relative to TO505-6180 (EC50 0.07 µM)
# T1 sequence (P19711 3270-3988): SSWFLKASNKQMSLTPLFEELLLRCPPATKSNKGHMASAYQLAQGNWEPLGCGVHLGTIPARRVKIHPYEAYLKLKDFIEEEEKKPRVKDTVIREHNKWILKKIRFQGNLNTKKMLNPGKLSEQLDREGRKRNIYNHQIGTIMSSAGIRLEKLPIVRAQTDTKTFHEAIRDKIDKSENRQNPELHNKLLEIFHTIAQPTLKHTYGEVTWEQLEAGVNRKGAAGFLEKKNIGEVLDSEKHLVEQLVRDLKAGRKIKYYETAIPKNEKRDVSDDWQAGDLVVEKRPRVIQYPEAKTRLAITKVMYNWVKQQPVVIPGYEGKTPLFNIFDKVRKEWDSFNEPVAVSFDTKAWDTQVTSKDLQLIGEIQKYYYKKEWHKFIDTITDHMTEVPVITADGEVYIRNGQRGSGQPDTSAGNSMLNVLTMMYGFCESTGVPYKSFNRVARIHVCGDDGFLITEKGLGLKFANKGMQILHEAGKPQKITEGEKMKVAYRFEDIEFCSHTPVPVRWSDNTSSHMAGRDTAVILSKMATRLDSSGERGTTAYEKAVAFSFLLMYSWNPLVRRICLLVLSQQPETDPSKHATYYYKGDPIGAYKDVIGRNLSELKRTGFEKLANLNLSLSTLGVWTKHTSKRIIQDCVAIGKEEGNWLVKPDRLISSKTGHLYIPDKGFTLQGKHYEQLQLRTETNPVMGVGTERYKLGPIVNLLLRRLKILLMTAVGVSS
smiles,measurement,setting,value
"Nc1nc2c(ncn2[C@@H]2O[C@H](COP(=O)(O)OP(=O)(O)OP(=O)(O)O)C[C@H]2O)c(=O)[nH]1 [3′-dGTP, 3′-deoxyguanosine-5’-triphosphate, reference compound]",IC50,[1],< 1000 nM
"Cc1cccc2sc(NC(=O)c3cc(-c4cnccn4)nc4ccccc34)nc12 [CSFC-116, Cc1cccc2sc(nc12)NC(=O)c4cc(nc3ccccc34)c5cnccn5]",EC50,BVDV NADL virus,300 nM
same,S.I.,BVDV NADL virus,333
same,fold increase,BVDV NADL virus; [3],0.67
same,CC50 at 5 days,[2],> 100000 nM
"COc1ccc(-c2cc(C(=O)Nc3nc4c(C)cccc4s3)c3ccccc3n2)cc1 [CSFC-117, COc1ccc(cc1)c3nc2ccccc2c(c3)C(=O)Nc4nc5c(C)cccc5s4]",EC50,BVDV NADL virus,1700 nM
same,S.I.,BVDV NADL virus,59
same,fold increase,BVDV NADL virus; [3],0.12
same,CC50 at 5 days,[2],> 100000 nM
"COc1ccc(-c2cc(C(=O)Nc3ccn(-c4ccccc4)n3)c3ccccc3n2)cc1 [CSFC-118, COc1ccc(cc1)c3nc2ccccc2c(c3)C(=O)Nc4ccn(n4)c5ccccc5]",EC50,BVDV NADL virus,300 nM
same,S.I.,BVDV NADL virus,333
same,fold increase,BVDV NADL virus; [3],0.67
same,CC50 at 5 days,[2],> 100000 nM
"COc1ccc(-c2cc(C(=O)Nc3nc4c(C)cccc4s3)c3ccccc3n2)cc1F [CSFC-119, COc1ccc(cc1F)c3nc2ccccc2c(c3)C(=O)Nc4nc5c(C)cccc5s4]",EC50,BVDV NADL virus,2500 nM
same,S.I.,BVDV NADL virus,40
same,fold increase,BVDV NADL virus; [3],0.08
same,CC50 at 5 days,[2],> 100000 nM
"Cc1ccc(-c2cc(C(=O)Nc3nc4c(C)cccc4s3)c3ccccc3n2)cc1 [CSFC-120, Cc1ccc(cc1)c3nc2ccccc2c(c3)C(=O)Nc4nc5c(C)cccc5s4]",EC50,BVDV NADL virus,200 nM
same,S.I.,BVDV NADL virus,500
same,fold increase,BVDV NADL virus; [3],1.00
same,CC50 at 5 days,[2],> 100000 nM
"O=C(Nc1ccn(-c2ccccc2)n1)c1cc(-c2ccncc2)nc2ccccc12 [CSFC-121, O=C(Nc1ccn(n1)c1ccccc1)c1cc(nc2ccccc21)c1ccncc1]",EC50,BVDV NADL virus,100000 nM
same,S.I.,BVDV NADL virus,1
same,fold increase,BVDV NADL virus; [3],0.002
same,CC50 at 5 days,[2],> 100000 nM
"O=C(Nc1ccn(-c2ccccc2)n1)c1cc(-c2cccs2)nc2ccc(Br)cc12 [CSFC-122, O=C(Nc1ccn(n1)c2ccccc2)c4cc(nc3ccc(Br)cc34)c5cccs5]",EC50,BVDV NADL virus,600 nM
same,S.I.,BVDV NADL virus,167
same,fold increase,BVDV NADL virus; [3],0.33
same,CC50 at 5 days,[2],> 100000 nM
"O=C(Nc1ccn(-c2ccccc2)n1)c1cc(-c2ccc(F)cc2)nc2ccc(F)cc12 [CSFC-123, Fc1ccc(cc1)c3nc2ccc(F)cc2c(c3)C(=O)Nc4ccn(n4)c5ccccc5]",EC50,BVDV NADL virus,300 nM
same,S.I.,BVDV NADL virus,333
same,fold increase,BVDV NADL virus; [3],0.67
same,CC50 at 5 days,[2],> 100000 nM
"O=C(Nc1ccn(-c2ccccc2F)n1)c1cc(-c2ccccc2)nc2ccccc12 [CSFC-125, Fc1ccccc1n2ccc(n2)NC(=O)c4cc(nc3ccccc34)c5ccccc5]",EC50,BVDV NADL virus,1600 nM
same,S.I.,BVDV NADL virus,63
same,fold increase,BVDV NADL virus; [3],0.13
same,CC50 at 5 days,[2],> 100000 nM
"O=C(Nc1ccn(-c2cccc(F)c2)n1)c1cc(-c2ccccc2)nc2ccccc12 [CSFC-126, Fc1cccc(c1)n2ccc(n2)NC(=O)c4cc(nc3ccccc34)c5ccccc5]",EC50,BVDV NADL virus,600 nM
same,S.I.,BVDV NADL virus,167
same,fold increase,BVDV NADL virus; [3],0.33
same,CC50 at 5 days,[2],> 100000 nM
"O=C(Nc1ccn(-c2cccc(F)c2)n1)c1cc(-c2cccnc2)nc2ccccc12 [CSFC-127, Fc1cccc(c1)n2ccc(n2)NC(=O)c4cc(nc3ccccc34)c5cccnc5]",EC50,BVDV NADL virus,100000 nM
same,fold increase,BVDV NADL virus; [3],0.002
same,CC50 at 5 days,[2],> 100000 nM
"O=C(Nc1ccn(-c2ccc(F)cc2)n1)c1cc(-c2ccccc2)nc2ccccc12 [CSFC-128, Fc1ccc(cc1)n2ccc(n2)NC(=O)c4cc(nc3ccccc34)c5ccccc5]",EC50,BVDV NADL virus,500 nM
same,S.I.,BVDV NADL virus,200
same,fold increase,BVDV NADL virus; [3],0.40
same,CC50 at 5 days,[2],> 100000 nM
"O=C(Nc1ccn(-c2ccc(F)cc2)n1)c1cc(-c2cccnc2)nc2ccccc12 [CSFC-129, Fc1ccc(cc1)n2ccc(n2)NC(=O)c4cc(nc3ccccc34)c5cccnc5]",EC50,BVDV NADL virus,1400 nM
same,S.I.,BVDV NADL virus,49
same,fold increase,BVDV NADL virus; [3],0.14
same,CC50 at 5 days,[2],68000 nM
"Cc1cccc(-n2ccc(NC(=O)c3cc(-c4cccnc4)nc4ccccc34)n2)c1 [CSFC-130, Cc1cccc(c1)n2ccc(n2)NC(=O)c4cc(nc3ccccc34)c5cccnc5]",EC50,BVDV NADL virus,20 nM
same,fold increase,BVDV NADL virus; [3],10.00
same,CC50 at 5 days,[2],5000 nM
"O=C(Nc1ccn(-c2ccccc2Cl)n1)c1cc(-c2ccccc2)nc2ccccc12 [CSFC-131, Clc1ccccc1n2ccc(n2)NC(=O)c4cc(nc3ccccc34)c5ccccc5]",EC50,BVDV NADL virus,100 nM
same,S.I.,BVDV NADL virus,1000
same,fold increase,BVDV NADL virus; [3],2.00
same,CC50 at 5 days,[2],> 100000 nM
"O=C(Nc1ccn(-c2cccc(Cl)c2)n1)c1cc(-c2ccccc2)nc2ccccc12 [CSFC-132, Clc1cccc(c1)n2ccc(n2)NC(=O)c4cc(nc3ccccc34)c5ccccc5]",EC50,BVDV NADL virus,20 nM
same,fold increase,BVDV NADL virus; [3],10.00
same,CC50 at 5 days,[2],> 100000 nM
"Cc1cccc(-n2ccc(NC(=O)c3cc(-c4ccccc4)nc4ccccc34)n2)c1 [CSFC-133, Cc1cccc(c1)n2ccc(n2)NC(=O)c4cc(nc3ccccc34)c5ccccc5]",EC50,BVDV NADL virus,20 nM
same,fold increase,BVDV NADL virus; [3],10.00
same,CC50 at 5 days,[2],> 100000 nM
"O=C(Nc1ccccc1)c1cc(-c2ccccc2)nc2ccccc12 [CSFC-134, O=C(Nc1ccccc1)c1cc(nc2ccccc12)c1ccccc1]",EC50,BVDV NADL virus,> 100000 nM
same,S.I.,BVDV NADL virus,1
same,fold increase,BVDV NADL virus; [4],0.0007
same,CC50 at 5 days,[2],> 100000 nM
"O=C(Nc1ccccc1O)c1cc(-c2ccccc2)nc2ccccc12 [CSFC-137, Oc1ccccc1NC(=O)c1cc(nc2ccccc12)c1ccccc1]",EC50,BVDV NADL virus,> 100000 nM
same,S.I.,BVDV NADL virus,1
same,fold increase,BVDV NADL virus; [4],0.0007
same,CC50 at 5 days,[2],> 100000 nM
"COc1cccc(NC(=O)c2cc(-c3ccccc3)nc3ccccc23)c1 [CSFC-138, COc1cccc(c1)NC(=O)c1cc(nc2ccccc12)c1ccccc1]",EC50,BVDV NADL virus,> 100000 nM
same,S.I.,BVDV NADL virus,1
same,fold increase,BVDV NADL virus; [4],0.0007
same,CC50 at 5 days,[2],> 100000 nM
"COc1ccc(NC(=O)c2cc(-c3ccccc3)nc3ccccc23)cc1 [CSFC-139, COc1ccc(cc1)NC(=O)c1cc(nc2ccccc12)c1ccccc1]",EC50,BVDV NADL virus,> 100000 nM
same,S.I.,BVDV NADL virus,1
same,fold increase,BVDV NADL virus; [4],0.0007
same,CC50 at 5 days,[2],> 100000 nM
"Cc1ccc(-n2ccc(NC(=O)c3cc(-c4cccnc4)nc4ccccc34)n2)cc1 [CSFC-140, Cc1ccc(cc1)n2ccc(n2)NC(=O)c4cc(nc3ccccc34)c5cccnc5]",EC50,BVDV NADL virus,20 nM
same,fold increase,BVDV NADL virus; [3],10.00
same,CC50 at 5 days,[2],16000 nM
"Cc1ccc(-n2ccc(NC(=O)c3cc(-c4ccccc4)nc4ccccc34)n2)cc1 [CSFC-141, Cc1ccc(cc1)n2ccc(n2)NC(=O)c4cc(nc3ccccc34)c5ccccc5]",EC50,BVDV NADL virus,600 nM
same,S.I.,BVDV NADL virus,167
same,fold increase,BVDV NADL virus; [3],0.33
same,CC50 at 5 days,[2],> 100000 nM
"Cc1ccccc1-n1ccc(NC(=O)c2cc(-c3ccccc3)nc3ccccc23)n1 [CSFC-142, Cc1ccccc1n2ccc(n2)NC(=O)c4cc(nc3ccccc34)c5ccccc5]",EC50,BVDV NADL virus,2300 nM
same,S.I.,BVDV NADL virus,10
same,fold increase,BVDV NADL virus; [3],0.09
same,CC50 at 5 days,[2],23000 nM
"O=C(Nc1ccn(-c2ccccc2)n1)c1cc(-c2cccc3ccccc23)nc2ccccc12 [CSFC-143, O=C(c2cc(nc1ccccc12)c4cccc3ccccc34)Nc5ccn(n5)c6ccccc6]",EC50,BVDV NADL virus,100 nM
same,S.I.,BVDV NADL virus,1000
same,fold increase,BVDV NADL virus; [3],2.00
same,CC50 at 5 days,[2],> 100000 nM
"O=C(Nc1ccn(-c2cc(F)cc(F)c2)n1)c1cc(-c2ccccc2)nc2ccccc12 [CSFC-144, Fc1cc(F)cc(c1)n2ccc(n2)NC(=O)c4cc(nc3ccccc34)c5ccccc5]",EC50,BVDV NADL virus,20 nM
same,fold increase,BVDV NADL virus; [3],10.00
same,CC50 at 5 days,[2],> 100000 nM
"Cc1ccc2sc(NC(=O)c3cc(-c4ccccc4)nc4ccccc34)nc2c1C [CSFC-145, Cc1c(C)ccc2sc(nc12)NC(=O)c1cc(nc2ccccc21)c1ccccc1]",EC50,BVDV NADL virus,< 20 nM
same,CC50 at 5 days,[2],> 100000 nM
"O=C(Nc1ccn(-c2ccccc2)n1)c1cc(-c2ccc3ccccc3c2)nc2ccccc12 [CSFC-146, O=C(c2cc(nc1ccccc12)c3cc4ccccc4cc3)Nc5ccn(n5)c6ccccc6]",EC50,BVDV NADL virus,30 nM
same,S.I.,BVDV NADL virus,3333
same,fold increase,BVDV NADL virus; [3],6.67
same,CC50 at 5 days,[2],> 100000 nM
"O=C(Nc1nc2c(F)cc(Br)cc2s1)c1cc(-c2ccccc2)nc2ccccc12 [CSFC-147, Fc1cc(Br)cc2sc(nc12)NC(=O)c1cc(nc2ccccc21)c1ccccc1]",EC50,BVDV NADL virus,10 nM
same,fold increase,BVDV NADL virus; [4],7.00
same,CC50 at 5 days,[2],6200 ± 1100 nM
"O=C(Nc1nc2c(C(F)(F)F)cccc2s1)c1cc(-c2ccccc2)nc2ccccc12 [CSFC-148, FC(F)(F)c1cccc2sc(nc12)NC(=O)c1cc(nc2ccccc21)c1ccccc1]",EC50,BVDV NADL virus,300 nM
same,S.I.,BVDV NADL virus,67
same,fold increase,BVDV NADL virus; [4],0.23
same,CC50 at 5 days,[2],20000 ± 1600 nM
"Cc1cc(C)c2sc(NC(=O)c3cc(-c4ccccc4)nc4ccccc34)nc2c1 [CSFC-149, Cc1cc2nc(NC(=O)c3cc(nc4ccccc43)c3ccccc3)sc2c(C)c1]",EC50,BVDV NADL virus,200 nM
same,S.I.,BVDV NADL virus,500
same,fold increase,BVDV NADL virus; [4],0.35
same,CC50 at 5 days,[2],> 100000 nM
"O=C(Nc1nc2c(F)cccc2s1)c1cc(-c2ccccc2)nc2ccccc12 [CSFC-150, Fc1cccc2sc(nc12)NC(=O)c1cc(nc2ccccc21)c1ccccc1]",EC50,BVDV NADL virus,100 nM
same,S.I.,BVDV NADL virus,80
same,fold increase,BVDV NADL virus; [4],0.70
same,CC50 at 5 days,[2],8000 ± 1000 nM
